Results: patent US20260130881A1, “SUSTAINED RELEASE DEVICE CONTENTS FOR TREATMENT OF PARKINSON'S DISEASE AND OTHER DISORDERS” (priority 2024, published 2026)

Conditions: human, in vivo

- AUC_0-6 h: 1423.0 ± 919.5 ng·h/mL
SMILES: N[C@@H](Cc1ccc(O)c(O)c1)C(=O)O [levodopa]
